Measured values reported in patent US8440713B2, “[1]benzothieno[3,2-B][1]benzothiophene compound and method for producing the same, and organic electronic device using the same” (Ricoh Company, Ltd., priority 2008, dated 2013).

Assay: Solubility of the precursor in chloroform, toluene and THF (solution left to stand, precipitation observed)
Assay type: physicochemical
Settings: toluene and THF, 1.0% by mass and 5.0% by mass, filtered, left to stand over night at room temperature
Experimental: Precursor 1 synthesized in Example 1 was dissolved respectively in chloroform, toluene and THF so as to be contained therein in concentrations of 1.0% by mass and 5.0% by mass, and then passed through a filter so as to prepare each solution.
The evaluation criteria of the solubility in Table 1 are as follows:
A: No precipitation of a solute was observed when a precursor was dissolved in each solution so as to be contained in a concentration of 5% by mass, and then left to stand for 12 hours at a room temperature.
B: No precipitation of a solute was observed when a precursor was dissolved in each solution so as to be contained in a concentration of 1% by mass, and then left to stand for 12 hours at a room temperature.
C: Precipitation of a solute was observed when a precursor was dissolved in each solution so as to be contained in a concentration of 1% by mass, and then left to stand for 12 hours at a room temperature.

| SMILES | solute separation from solution |
| --- | --- |
| CCCCCCC(CCCC)C(=O)OC(CC)c1ccc(-c2ccc3c(c2)sc2c4ccc(-c5ccc(C(CC)OC(=O)C(CCCC)CCCCCC)s5)cc4sc32)s1 (stereo not shown) [Example 13] | solute separation was not observed at all in any solvent and concentration |

Same assay, conditions: toluene, THF, 1% or 5% by mass, left to stand 12 hours at room temperature

| SMILES | Solubility |
| --- | --- |
| CCCCCCCCc1ccc2c(c1)sc1c3ccc(CCCCCCCC)cc3sc21 [Comparative Example 2, 2,7-dioctyl[1]benzothieno[3,2-b][1]benzothiophene, reference compound] | B (No precipitation of a solute was observed when a precursor was dissolved in each solution so as to be contained in a concentration of 1% by mass, and then left to stand for 12 hours at a room temperature.) |
| CCCCCCC(CCCC)C(=O)OC(CC)c1ccc(-c2ccc(-c3ccc4c(c3)sc3c5ccc(-c6ccc(-c7ccc(C(CC)OC(=O)C(CCCC)CCCCCC)s7)s6)cc5sc43)s2)s1 (stereo not shown) [Example 15] | A (No precipitation of a solute was observed when a precursor was dissolved in each solution so as to be contained in a concentration of 5% by mass, and then left to stand for 12 hours at a room temperature.) |
| c1ccc(-c2ccc3c(c2)sc2c4ccc(-c5ccccc5)cc4sc32)cc1 [Comparative Example 1, 2,7-diphenyl [1]benzothieno[3,2-b][1]benzothiophene, reference compound] | C (Precipitation of a solute was observed when a precursor was dissolved in each solution so as to be contained in a concentration of 1% by mass, and then left to stand for 12 hours at a room temperature.) |
| CCCCCCC(CCCC)C(=O)OC(CC)c1ccc(-c2ccc3c(c2)sc2c4ccc(-c5ccc(C(CC)OC(=O)C(CCCC)CCCCCC)cc5)cc4sc32)cc1 (stereo not shown) [Example 14] | A (No precipitation of a solute was observed when a precursor was dissolved in each solution so as to be contained in a concentration of 5% by mass, and then left to stand for 12 hours at a room temperature.) |
| CCCCSC(=S)OC(CC)c1ccc(-c2ccc3c(c2)sc2c4ccc(-c5ccc(C(CC)OC(=S)SCCCC)s5)cc4sc32)s1 (stereo not shown) [Example 16] | A (No precipitation of a solute was observed when a precursor was dissolved in each solution so as to be contained in a concentration of 5% by mass, and then left to stand for 12 hours at a room temperature.) |
| CCCCCCC(CCCC)C(=O)OC(CC)c1ccc(-c2ccc3c(c2)sc2c4ccc(-c5ccc(C(CC)OC(=O)C(CCCC)CCCCCC)s5)cc4sc32)s1 (stereo not shown) [Example 13] | A (No precipitation of a solute was observed when a precursor was dissolved in each solution so as to be contained in a concentration of 5% by mass, and then left to stand for 12 hours at a room temperature.) |
